Entries after “also recorded” stand apart in the source; their conditions may differ.
What was measured:
male Sprague-Dawley rats = assay: Von Frey; type: in vivo, rat; settings: baseline dropped to about 20 after CFA
CD1 male mice [1] = assay: In vivo liver function tests and serum creatinine; set-up: species or system mouse; settings: 600 mg/kg; for liver function tests (ALT, AST, ALP) in serum: serum after 12 h
male CD1 mice [2] = assay: Baker's yeast-induced hyperthermia; type: in vivo, mouse; settings: 80 mg/kg po, n = 10, 2 h after drug (6-h time point)
CD1 male mice [3] = assay: Liver histology and immunohistochemistry; type: in vivo, mouse; settings: for H&E-stained liver sections / apoptotic nuclei (TUNEL) / hepatic tight junctions (ZO-1 staining): 600 mg/kg; for H&E-stained liver sections: CD1 mice
CD1 mice = assay: NAPQI detection in serum by LC-MS/MS; type: in vivo, mouse; settings: 600 mg/kg, ip or po
HepaRG = settings: HepaRG, 50, 100, 1000 and 5000 μM, 6 h, 12 h, 24 h
[4] = tested on: primary human hepatocytes (PHH); assay: Reduced glutathione; type: cell-based; settings: 500 or 1000 μM, 3 h, 6 h, 12 h
[5] = tested on: primary human hepatocytes (PHH); assay: LDH release in primary human hepatocytes; settings: 500 or 1000 μM, 3 h, 6 h, 12 h, in comparison to ApAP
male CD1 mice [6] = settings: 600 mg/kg, n = 20 mice per group
[7] = cited from earlier work
CYP3A4 = CYP3A4 (Homo sapiens, UniProt P08684); settings: titration curves for 2D6 and 3A4; isozyme not given
CYP2D6 = CYP2D6 (Homo sapiens, UniProt P10635); assay: Vivid CYP450 screening assay, CYP2D6; type: biochemical
Sequence of CYP2D6 (P10635 whole entry): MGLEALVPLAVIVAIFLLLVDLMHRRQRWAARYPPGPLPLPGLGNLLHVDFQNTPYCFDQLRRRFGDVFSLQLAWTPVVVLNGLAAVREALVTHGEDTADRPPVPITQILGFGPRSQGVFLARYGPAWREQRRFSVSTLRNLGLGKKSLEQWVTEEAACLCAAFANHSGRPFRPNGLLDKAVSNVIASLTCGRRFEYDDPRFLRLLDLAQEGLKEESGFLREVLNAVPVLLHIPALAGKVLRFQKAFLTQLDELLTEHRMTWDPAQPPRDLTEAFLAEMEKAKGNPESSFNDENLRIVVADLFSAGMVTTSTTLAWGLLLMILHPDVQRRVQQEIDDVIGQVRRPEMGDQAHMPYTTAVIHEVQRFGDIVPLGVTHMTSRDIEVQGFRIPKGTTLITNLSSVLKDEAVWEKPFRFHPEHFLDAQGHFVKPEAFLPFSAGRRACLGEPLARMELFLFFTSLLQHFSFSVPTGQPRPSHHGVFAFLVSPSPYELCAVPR

Sequence of CYP3A4 (P08684 whole entry): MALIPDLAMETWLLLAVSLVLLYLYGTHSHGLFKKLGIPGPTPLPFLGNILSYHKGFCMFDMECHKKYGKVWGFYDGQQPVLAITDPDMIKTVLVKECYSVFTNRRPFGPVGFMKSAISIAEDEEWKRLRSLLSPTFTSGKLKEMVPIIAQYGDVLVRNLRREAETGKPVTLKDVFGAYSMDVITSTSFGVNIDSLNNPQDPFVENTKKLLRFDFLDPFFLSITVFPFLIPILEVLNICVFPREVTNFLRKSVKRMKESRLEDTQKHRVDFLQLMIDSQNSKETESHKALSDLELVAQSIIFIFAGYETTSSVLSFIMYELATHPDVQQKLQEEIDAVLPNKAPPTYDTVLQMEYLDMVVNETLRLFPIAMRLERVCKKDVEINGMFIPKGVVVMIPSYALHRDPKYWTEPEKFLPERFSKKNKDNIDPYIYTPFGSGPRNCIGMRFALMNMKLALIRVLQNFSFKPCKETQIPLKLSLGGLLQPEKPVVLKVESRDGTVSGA

For CC(=O)Nc1ccc(O)cc1 [ApAP, N-Acetyl-4-aminophenol, reference compound], the “latency for withdrawal of the CFA-injected left hind foot” value (“latency for withdrawal” below) (male Sprague-Dawley rats) was “increased”, the “serum creatinine (renal function)” value (CD1 male mice [1]) was “moderately elevated; also recorded: significantly high” and the “liver function tests (ALT, AST, ALP) in serum” value (“liver function tests” below) (CD1 male mice [1]) was “Increased levels; also recorded: significantly high”. The antipyretic effect (male CD1 mice [2]) was “effectively reduced fever”, the “H&E-stained liver sections” value (CD1 male mice [3]) was “centrilobular hepatic hemorrhagic necrosis” and the “apoptotic nuclei (TUNEL)” value (CD1 male mice [3]; mice) was “A large number of apoptotic nuclei”. The “hepatic tight junctions (ZO-1 staining)” value (CD1 male mice [3]; mice) was “Loss of hepatic tight junctions”, the “nitrotyrosine in liver (marker of mitochondrial free radical formation)” value (CD1 male mice [3]; toxic dose, mice) was “large amounts of nitrotyrosine” and the “NAPQI generation in serum” value (CD1 mice) was “detected NAPQI generation”.

With CNC(=O)c1ccccc1S(=O)(=O)NCC(=O)Nc1ccc(O)cc1 [3b, 2-[[2-(4-Hydroxyanilino)-2-oxo-ethyl]sulfamoyl]-N-methylbenzamide] the “hepatotoxicity (LDH release, reduced GSH), dose and time-dependent effect” value (HepaRG) was “lack of hepatotoxicity”, the “latency for withdrawal” value (male Sprague-Dawley rats) was “increased” and the “liver function tests” value (CD1 male mice [1]) was “marked reduction in LFTs”. The “amount of reduced GSH” value [4] was “consistently increased”, the “H&E-stained liver sections” value (CD1 male mice [3]) was “healthy liver architecture was maintained” and the “apoptotic nuclei (TUNEL)” value (CD1 male mice [3]; mice) was “but not in 3b and 3r”. The “hepatic tight junctions (ZO-1 staining)” value (CD1 male mice [3]; mice) was “preserved”, the “NAPQI generation in serum” value (CD1 mice) was “did not result in the formation of NAPQI” and the LDH release [5] was “consistently decreased”. For the same molecule, the “mice alive after 48 h” value (male CD1 mice [6]) was 20 mice.

In the case of O=C(CN1C(=O)c2ccccc2S1(=O)=O)Nc1ccc(O)cc1 [compound 1, N-(4-hydroxyphenyl)-2-(1,1,3-trioxo-1,2-benzothiazol-2-yl)acetamide], the hepatotoxicity ([7]; compared with ApAP) is given as “considerably decreased”, the “in vivo analgesic profile” value ([7]; compared with ApAP) is given as “maintained the in vivo analgesic profile of ApAP” and the in vivo metabolism ([7]; into the main metabolite 2) is given as “quickly metabolized in vivo”. For the same molecule, the antipyresis ([7]; stated in abstract, no reference given) was “not antipyretic”.

In the case of O=C(CNS(=O)(=O)c1ccccc1C(=O)NCCc1ccc(O)c(O)c1)Nc1ccc(O)cc1 [3r, N-[2-(3,4-dihydroxyphenil)ethyl]-2-[[2-(4-hydroxyanilino)-2-oxo-ethyl]sulfamoyl] benzamide], the “hepatotoxicity (LDH release, reduced GSH), dose and time-dependent effect” value (HepaRG) is reported as “lack of hepatotoxicity”, the “concentrations at which inhibition is noted” value (CYP3A4) is reported as over 1000 nM and the “inhibitory effects on CYP2D6” value (CYP2D6) is reported as “only marginal inhibitory effects”. For the same molecule, the “latency for withdrawal” value (male Sprague-Dawley rats) was “increased”, the “liver function tests” value (CD1 male mice [1]) was “marked reduction in LFTs” and the “amount of reduced GSH” value [4] was “consistently increased”. For the same molecule, the “H&E-stained liver sections” value (CD1 male mice [3]) was “healthy liver architecture was maintained”, the “apoptotic nuclei (TUNEL)” value (CD1 male mice [3]; mice) was “but not in 3b and 3r” and the “hepatic tight junctions (ZO-1 staining)” value (CD1 male mice [3]; mice) was “preserved”. For the same molecule, the “NAPQI generation in serum” value (CD1 mice) was “did not result in the formation of NAPQI”, the LDH release [5] was “consistently decreased” and the “mice alive after 48 h” value (male CD1 mice [6]) was 20 mice.
